According to patent US20250099528A1, “ORAL COMPOSITION” (Toyo Shinyaku Co., Ltd., priority 2023, published 2025):

Tested on: Caco-2 cells
Test: Leucine permeability test using Caco-2 cells
Assay type: in vitro ADME, Human
Details: Caco-2 insert wells, luminal to basolateral side, culture two hours, L-leucine 0.131 mg/mL, HPLC
Method: To assess the action of promoting free amino acid absorption of a dark-green vegetable, leucine permeability was measured by a test using Caco-2 cells. The following materials were used as test substances. • (1) As a dark-green vegetable, crushed powder of young barley grass (containing 43% by weight of dietary fiber; manufactured by TOYO SHINYAKU Co., Ltd.) which was obtained by washing grass harvested before heading, then cutting, drying, and then crushing was used. The crushed powder of young barley grass in an amount of 24 mg was put into a tube, and after adding 1 mL of a buffer, the mixture was vortexed. Then, the supernatant was collected through centrifugation at 15,000×g for five minutes at room temperature. […] When the medium was changed before the addition of the samples, the medium outside the insert wells (the wells at the basolateral side) was replaced with 1000 μl of 10% FBS-DMEM, and the medium inside the insert wells (the wells at the luminal side) was replaced with 350 μl of 10% FBS-DMEM. • (5) The electrical resistance values were measured with Millicell ERS-2, and the wells having a value of 1000Ω or more were used. […] The leucine concentrations of the obtained concentrated liquids were measured with high performance liquid chromatography. The measurement results were applied to the equation below, and thus the leucine permeability was calculated. […]

`CC(C)C[C@H](N)C(=O)O` [Comparative Example 1, L-leucine] was tested, and the “Leucine Permeability (%)” value was 1.32%.
